This assay has as its target T1, b-Raf(V600E) (Homo sapiens, UniProt P15056, V600E).
T1 construct: made in house
Nature of the assay: Raf/Mek Amplified Luminescence Proximity Homogeneous Assay (Alpha Screen), b-Raf(V600E). Type of assay: biochemical. The following applies: mutant b-Raf(V600E), read-out: mut-b-RAF (IC50 in uM). The essentials:
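Active b-Raf(V600E) (~4 pM) pre-incubated 60 min at room temperature with compound and kinase-dead biotinylated Mek (~10 nM) in Tris pH 7.5, MgCl2, BSA, DTT; ATP-started reaction ran 3 h, EDTA-stopped. Phospho-MEK detected by anti-p-MEK AlphaScreen luminescence; IC50 by non-linear regression.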
T1 sequence (P15056 whole entry V600E): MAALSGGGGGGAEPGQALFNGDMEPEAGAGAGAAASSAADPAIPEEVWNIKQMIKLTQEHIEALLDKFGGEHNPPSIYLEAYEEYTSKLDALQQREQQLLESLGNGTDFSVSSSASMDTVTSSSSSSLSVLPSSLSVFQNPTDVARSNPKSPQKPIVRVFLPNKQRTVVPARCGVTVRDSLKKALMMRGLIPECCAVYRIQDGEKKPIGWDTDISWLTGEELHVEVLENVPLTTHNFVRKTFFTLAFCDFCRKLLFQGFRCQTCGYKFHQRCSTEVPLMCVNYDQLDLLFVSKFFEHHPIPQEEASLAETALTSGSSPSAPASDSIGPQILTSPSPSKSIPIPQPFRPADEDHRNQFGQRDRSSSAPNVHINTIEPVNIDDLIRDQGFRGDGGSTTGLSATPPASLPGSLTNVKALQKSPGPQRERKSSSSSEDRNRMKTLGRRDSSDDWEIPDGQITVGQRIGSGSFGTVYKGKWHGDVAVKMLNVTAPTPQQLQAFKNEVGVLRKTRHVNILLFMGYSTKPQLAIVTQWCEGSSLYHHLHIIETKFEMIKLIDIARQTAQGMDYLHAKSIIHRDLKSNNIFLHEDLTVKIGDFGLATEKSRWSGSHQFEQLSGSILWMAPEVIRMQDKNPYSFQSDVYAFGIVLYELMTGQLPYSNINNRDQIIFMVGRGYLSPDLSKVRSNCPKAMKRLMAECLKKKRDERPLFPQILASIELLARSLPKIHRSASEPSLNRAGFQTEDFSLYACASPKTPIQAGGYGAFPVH
What is called IC50 is the midpoint of a concentration-inhibition curve. Take `COc1cc(-c2nc(C(C)(C)C)[nH]c2-c2ccnc(Nc3cccc(C(F)(F)F)c3)n2)cnc1N` [Compound 191, 4-(4-(6-amino-5-methoxypyridin-3-yl)-2-tert-butyl-1H-imidazol-5-yl)-N-(3-(trifluoromethyl)phenyl) pyrimidin-2-amine]: the IC50 was 0.0004 µM.

With `COc1ccc(CNc2nccc(-c3[nH]c(C(C)(C)C)nc3-c3cnc(N)c(OC)c3)n2)cc1` [Compound 192, 4-(4-(6-amino-5-methoxypyridin-3-yl)-2-tert-butyl-1H-imidazol-5-yl)-N-(4-methoxybenzyl)pyrimidin-2-amine], the IC50 is 0.0002 µM.

As to `COc1cc(-c2[nH]c(-c3ccc(F)cc3)nc2-c2ccnc(N[C@@H]3CCN(C(C)=O)C3)n2)cnc1N` [Compound 193, (R)-1-(3-(4-(5-(6-amino-5-methoxypyridin-3-yl)-2-(4-fluorophenyl)-1H-imidazol-4-yl)pyrimidin-2-ylamino)pyrrolidin-1-yl)ethanone], the IC50 was found to be 0.038 µM.

As for `COc1cc(-c2[nH]c(-c3ccc(F)cc3)nc2-c2ccnc(N[C@H]3CCN(C(C)=O)C3)n2)cnc1N` [Compound 194, (S)-1-(3-(4-(5-(6-amino-5-methoxypyridin-3-yl)-2-(4-fluorophenyl)-1H-imidazol-4-yl)pyrimidin-2-ylamino)pyrrolidin-1-yl)ethanone], the IC50 amounted to 0.008 µM.

For the compound `COc1cc(-c2nc(-c3ccc(F)cc3)[nH]c2-c2ccnc(NC[C@H](C)NS(C)(=O)=O)n2)cnc1N` [Compound 195, (S)-N-(1-(4-(4-(6-amino-5-methoxypyridin-3-yl)-2-(4-fluorophenyl)-1H-imidazol-5-yl)pyrimidin-2-ylamino)propan-2-yl)methanesulfonamide], the 50% inhibitory concentration (IC50) was found to be 0.0001 µM.

Consider `COc1cc(-c2nc(-c3ccc(F)cc3)[nH]c2-c2ccnc(NC[C@H](C)NC(=O)[C@@H](C)OC)n2)cnc1N` [Compound 196, (R)-N-((S)-1-(4-(4-(6-amino-5-methoxypyridin-3-yl)-2-(4-fluorophenyl)-1H-imidazol-5-yl)pyrimidin-2-ylamino)propan-2-yl)-2-methoxypropanamide], for which the IC50 was found to be 0.0002 µM.

As to `COc1cc(-c2nc(-c3ccc(F)cc3)[nH]c2-c2ccnc(NC[C@H](C)NC(=O)[C@H](C)OC)n2)cnc1N` [Compound 197, (S)-N-((S)-1-(4-(4-(6-amino-5-methoxypyridin-3-yl)-2-(4-fluorophenyl)-1H-imidazol-5-yl)pyrimidin-2-ylamino)propan-2-yl)-2-methoxypropanamide], the IC50 was 0.0001 µM.

For `COc1cc(-c2[nH]c(-c3ccc(F)cc3)nc2-c2ccnc(N[C@@H]3CCN(S(C)(=O)=O)C3)n2)cnc1N` [Compound 199, (R)-4-(5-(6-amino-5-methoxypyridin-3-yl)-2-(4-fluorophenyl)-1H-imidazol-4-yl)-N-(1-(methylsulfonyl)pyrrolidin-3-yl)pyrimidin-2-amine], the IC50 was 0.015 µM.

As for `COc1cc(-c2[nH]c(-c3ccc(F)cc3)nc2-c2ccnc(N[C@H]3CCN(S(C)(=O)=O)C3)n2)cnc1N` [Compound 200, (S)-4-(5-(6-amino-5-methoxypyridin-3-yl)-2-(4-fluorophenyl)-1H-imidazol-4-yl)-N-(1-(methylsulfonyl)pyrrolidin-3-yl)pyrimidin-2-amine], the half-maximal inhibitory concentration (IC50) stood at 0.004 µM.

Take `COc1cc(-c2nc(C(C)(C)C)[nH]c2-c2ccnc(N)n2)cnc1N` [Compound 201, 4-(4-(6-amino-5-methoxypyridin-3-yl)-2-tert-butyl-1H-imidazol-5-yl)pyrimidin-2-amine]: the IC50 stood at 0.0005 µM.

For `COCC(=O)NCCNc1nccc(-c2nc(-c3ccc(F)cc3)[nH]c2-c2cc(C)c3ncnn3c2)n1` [Compound 202, N-(2-(4-(2-(4-fluorophenyl)-5-(8-methyl-[1,2,4]triazolo[1,5-a]pyridin-6-yl)-1H-imidazol-4-yl)pyrimidin-2-ylamino)ethyl)-2-methoxyacetamide], the IC50 is 0.025 µM.

As to `COc1cc(-c2nc(C(C)(C)C)[nH]c2-c2ccnc(N[C@@H]3CCN(S(C)(=O)=O)C3)n2)cnc1N` [Compound 203, (R)-4-(4-(6-amino-5-methoxypyridin-3-yl)-2-tert-butyl-1H-imidazol-5-yl)-N-(1-(methylsulfonyl)pyrrolidin-3-yl)pyrimidin-2-amine], the IC50 came to 0.0035 µM.

`COCC(=O)NC[C@H](C)Nc1nccc(-c2nc(C(C)(C)C)[nH]c2-c2cnc(N)c(OC)c2)n1` [Compound 204, (S)-N-(2-(4-(5-(6-amino-5-methoxypyridin-3-yl)-2-tert-butyl-1H-imidazol-4-yl)pyrimidin-2-ylamino)propyl)-2-methoxyacetamide]: the IC50 turned out to be 0.0008 µM.

Consider `COCC(=O)N[C@@H](C)CNc1nccc(-c2[nH]c(C(C)(C)C)nc2-c2cnc(N)c(OC)c2)n1` [Compound 205, (S)-N-(1-(4-(4-(6-amino-5-methoxypyridin-3-yl)-2-tert-butyl-1H-imidazol-5-yl)pyrimidin-2-ylamino)propan-2-yl)-2-methoxyacetamide], for which the IC50 is 0.0004 µM.

With `COc1cc(-c2nc(C(C)(C)C)[nH]c2-c2ccnc(NC[C@H](C)NC(=O)C(F)(F)F)n2)cnc1N` [Compound 206, (S)-N-(1-(4-(4-(6-amino-5-methoxypyridin-3-yl)-2-tert-butyl-1H-imidazol-5-yl)pyrimidin-2-ylamino)propan-2-yl)-2,2,2-trifluoroacetamide], the IC50 was 0.0003 µM.

Turning to `COc1cc(-c2[nH]c(C(C)(C)C)nc2-c2ccnc(N[C@@H](C)CNC(=O)[C@H](C)OC)n2)cnc1N` [Compound 207, (S)-N-((S)-2-(4-(5-(6-amino-5-methoxypyridin-3-yl)-2-tert-butyl-1H-imidazol-4-yl)pyrimidin-2-ylamino)propyl)-2-methoxypropanamide], the IC50 was 0.0158 µM.

As to `COc1cc(-c2[nH]c(C(C)(C)C)nc2-c2ccnc(N[C@@H](C)CNC(=O)[C@@H](C)OC)n2)cnc1N` [Compound 208, (R)-N-((S)-2-(4-(5-(6-amino-5-methoxypyridin-3-yl)-2-tert-butyl-1H-imidazol-4-yl)pyrimidin-2-ylamino)propyl)-2-methoxypropanamide], the IC50 worked out at 0.0014 µM.

`COc1cc(-c2nc(C(C)(C)C)[nH]c2-c2ccnc(NCC(C)C)n2)cnc1N` [Compound 209, 4-(4-(6-amino-5-methoxypyridin-3-yl)-2-tert-butyl-1H-imidazol-5-yl)-N-isobutylpyrimidin-2-amine]: the IC50 was 0.0001 µM.

Regarding `CNc1nccc(-c2[nH]c(C(C)(C)C)nc2-c2cnc(N)c(OC)c2)n1` [Compound 210, 4-(4-(6-amino-5-methoxypyridin-3-yl)-2-tert-butyl-1H-imidazol-5-yl)-N-methylpyrimidin-2-amine], the IC50 was determined as 0.0001 µM.

`CCNc1nccc(-c2[nH]c(C(C)(C)C)nc2-c2cnc(N)c(OC)c2)n1` [Compound 211, 4-(4-(6-amino-5-methoxypyridin-3-yl)-2-tert-butyl-1H-imidazol-5-yl)-N-ethylpyrimidin-2-amine]: the IC50 was determined as 0.0001 µM.

`CCCNc1nccc(-c2[nH]c(C(C)(C)C)nc2-c2cnc(N)c(OC)c2)n1` [Compound 212, 4-(4-(6-amino-5-methoxypyridin-3-yl)-2-tert-butyl-1H-imidazol-5-yl)-N-propylpyrimidin-2-amine]: the IC50 was determined as 0.0001 µM.

For the compound `COc1cc(-c2nc(C(C)(C)C)[nH]c2-c2ccnc(NCC(F)(F)F)n2)cnc1N` [Compound 213, 4-(4-(6-amino-5-methoxypyridin-3-yl)-2-tert-butyl-1H-imidazol-5-yl)-N-(2,2,2-trifluoroethyl)pyrimidin-2-amine], the IC50 was 0.0001 µM.

Consider `COCC(=O)N[C@@H](C)CNc1nccc(-c2oc(-c3ccc(F)cc3)nc2-c2cnc(N)c(OC)c2)n1` [Compound 214, (S)-N-(1-(4-(4-(6-amino-5-methoxypyridin-3-yl)-2-(4-fluorophenyl)oxazol-5-yl)pyrimidin-2-ylamino)propan-2-yl)-2-methoxyacetamide], for which the IC50 amounted to 0.001 µM.

Take `COc1cc(-c2nc(C(C)(C)C)[nH]c2-c2ccnc(NCc3ccc(C(F)(F)F)cc3)n2)cnc1N` [Compound 215, 4-(4-(6-amino-5-methoxypyridin-3-yl)-2-tert-butyl-1H-imidazol-5-yl)-N-(4-(trifluoromethyl)benzyl)-pyrimidin-2-amine]: the IC50 is 0.0005 µM.

With `COCC(=O)N[C@@H](C)CNc1nccc(-c2[nH]c(-c3ccc(C(F)(F)F)cc3F)nc2-c2cnc(N)c(OC)c2)n1` [Compound 216, (S)-N-(1-(4-(6-(6-amino-5-methoxypyridin-3-yl)-2-(2-fluoro-4-(trifluoromethyl)phenyl)-1H-imidazol-5-yl)pyrimidin-2-ylamino)propan-2-yl)-2-methoxyacetamide], the IC50 was 0.0002 µM.

As for `COCC(=O)N[C@@H](C)CNc1nccc(-c2oc(-c3ccc(F)cc3)nc2-c2cnc(N)c(OC)n2)n1` [Compound 217, (S)-N-(1-(4-(4-(5-amino-6-methoxypyrazin-2-yl)-2-(4-fluorophenyl)oxazol-5-yl)pyrimidin-2-ylamino)propan-2-yl)-2-methoxyacetamide], the IC50 turned out to be 0.002 µM.

Regarding `COc1cc(-c2nc(C(C)(C)C)[nH]c2-c2ccnc(NC[C@H](C)NC(C)=O)n2)cnc1N` [Compound 218, (S)-N-(1-(4-(4-(6-amino-5-methoxypyridin-3-yl)-2-tert-butyl-1H-imidazol-5-yl)pyrimidin-2-ylamino)propan-2-yl)acetamide], the IC50 came to 0.0003 µM.

With `CNC(=O)N[C@@H](C)CNc1nccc(-c2[nH]c(C(C)(C)C)nc2-c2cnc(N)c(OC)c2)n1` [Compound 219, (S)-1-(1-(4-(4-(6-amino-5-methoxypyridin-3-yl)-2-tert-butyl-1H-imidazol-5-yl)pyrimidin-2-ylamino)propan-2-yl)-3-methylurea], the IC50 was found to be 0.0003 µM.

As to `COc1cc(-c2nc(-c3ccc(F)cc3)oc2-c2ccnc(NCC(C)C)n2)cnc1N` [Compound 220, 4-(4-(6-amino-5-methoxypyridin-3-yl)-2-(4-fluorophenyl)oxazol-5-yl)-N-isobutylpyrimidin-2-amine], the IC50 was determined as 0.002 µM.

The values above are taken from patent publication US20100003246A1, “Novel heterocyclic compounds and uses therof” (priority 2008, published 2010).
